{"source": "patent US11357752B2", "about": "“Carolacton and derivatives thereof for use in the treatment of cell proliferation disorders” (Helmholtz-Zentrum für Infektionsforschung GmbH, priority 2017, dated 2022)", "key": {"hsMTHFD2": {"target": "T1, hsMTHFD2 (Homo sapiens, UniProt P13995)", "T1 construct": "His-tag (vector pHis-TEV); made in house; host or cells: E. coli BL21 (DE3)", "T1 sequence (P13995 36-350)": "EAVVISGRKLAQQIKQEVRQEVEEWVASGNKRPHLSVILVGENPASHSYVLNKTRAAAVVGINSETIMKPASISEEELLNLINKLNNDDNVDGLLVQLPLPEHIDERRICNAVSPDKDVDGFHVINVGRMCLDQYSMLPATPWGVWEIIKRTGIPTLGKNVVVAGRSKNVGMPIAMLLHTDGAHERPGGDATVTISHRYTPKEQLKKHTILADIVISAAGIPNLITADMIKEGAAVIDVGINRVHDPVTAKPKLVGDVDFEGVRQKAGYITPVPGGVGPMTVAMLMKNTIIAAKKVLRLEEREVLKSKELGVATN", "assay": "FoID cyclohydrolase (CYH) enzyme assay", "format": "biochemical", "protocol": "(§1) (6R,S)-5,10-Methylene-5,6,7,8-tetrahydrofolic acid ((6R,S)-5,10-CH2-THF), calcium salt and (6R,S)-5,10-Methenyl-5,6,7,8-tetrahydrofolic acid ((6R,S)-5,10-CH=THF) chloride were purchased from Schircks Laboratories (Bauma, Switzerland) and were used as substrates for FoID dehydrogenase and cyclohydrolase enzyme assays, respectively. Only the R-isomer, which accounts for 50% of (6R,S)-5,10-CH2-THF and (6R,S)-5,10-CH=THF, respectively, is used by the enzyme. (6R,S)-5,10-CH2-THF was dissolved in N2-spargeled basic buffer (50 mM Tris-HCl (pH 8.0), 100 mM β-mercaptoethanol) as described by Sah and Varshney, 2015a (6R,S)-5,10-CH=THF was first dissolved in DMSO as a 100 mM stock solution.\n(§2) Because FoID is a bifunctional enzyme, dehydrogenase and cyclohydrolase activities were determined for FoID enzyme kinetics, respectively. The dehydrogenase activity of FoID was assayed for its substrate 5,10-CH2-THF and cofactor NADP+ (in the case of MTHFD2, NAD+ was used as cofactor) based on monitoring the formation of 5,10-CH=THF while the cyclohydrolase activity of FoID was determined for its substrate 5,10-CH=THF by monitoring the hydrolysis of 5,10-CH2-THF. The enzyme kinetics for the dehydrogenase activity of all FoIDs except hsMTHFD1_DC were determined at 30° C. in 50 mM Tris-HCl (pH 7.5), 30 mM β-mercaptoethanol. The hsMTHFD1_DC dehydrogenase activity was measured in 25 mM MOPS (pH 7.3), 30 mM β-mercaptoethanol at 30° C. To measure the enzyme kinetics constants for 5,10-CH2-THF, for example in the case of ecFoID, the NADP concentration was fixed at 1 mM and the concentration of 5,10-CH2-THF varied from 5 μM to 1,500 μM (R-isomer). Similarly, to measure the kinetic constants of ecFoID for NADP+, the concentration of 5,10-CH2-THF (R-isomer) was fixed at 1 mM and the concentration of NADP+ varied from 10 μM to 1,500 μM. For different FoIDs, the varied concentration range of substrates could be different. […] To monitor the formation of 5,10-CH=THF, the absorbance of the reaction mixture was monitored at 350 nm in micro UV cuvettes (BRAND, Essex, Connecticut, USA). The concentration of 5,10-CH=THF produced in the reaction was determined using an extinction co-efficient of 0.0249 μM-1 cm-1. […] The consumption of 5,10-CH=THF was measured by recording the absorbance of the reactions at 355 nm using the TECAN Infinite 200 PRO equipped with a monochromator. […] The inhibition constants (Ki) of carolacton on FoID were determined by measuring the apparent Km values when adding certain amounts of carolacton to the enzyme reactions. […] To compare the inhibition effects of carolacton between the different FoIDs, the half maximal inhibitory concentration (IC50) of carolacton on the same amount of enzyme was determined for FoIDs involved in this study. […]"}, "hsMTHFD1 DC301": {"target": "T2, hsMTHFD1 DC301 (Homo sapiens, UniProt P11586)", "T2 construct": "We therefore expressed and purified hsMTHFD2 and hsMTHFD1_DC to test them biochemically; His-tag (vector pHis-TEV); made in house; host or cells: E. coli BL21 (DE3)", "T2 sequence (P11586 2-291 limits assumed)": "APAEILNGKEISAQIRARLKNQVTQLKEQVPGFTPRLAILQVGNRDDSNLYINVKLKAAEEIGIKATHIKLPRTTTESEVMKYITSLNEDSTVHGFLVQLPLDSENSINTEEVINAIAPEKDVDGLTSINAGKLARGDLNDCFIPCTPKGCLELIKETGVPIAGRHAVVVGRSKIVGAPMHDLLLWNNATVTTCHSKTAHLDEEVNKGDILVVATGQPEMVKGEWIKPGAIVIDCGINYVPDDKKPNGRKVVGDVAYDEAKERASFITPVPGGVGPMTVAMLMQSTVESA", "assay": "FoID cyclohydrolase (CYH) enzyme assay", "format": "biochemical", "protocol": "as §1, §2"}, "L-929 mouse fibroblasts": {"test_system": "L-929 mouse fibroblasts", "assay": "Toxicity assay (MTT, confluent layer)", "format": "cell-based", "settings": "L929; after 18 h", "protocol": "L-929 mouse fibroblasts from DSMZ cultivated at 37° C. and […] in DME medium (high glucose) supplemented with 10% fetal calf serum. Cell culture reagents came from Life Technologies Inc. (GIBCO BRL). […] of sus-pended cells (100,000/mL) were seeded into wells of 96-well plate. After 4 days when the cells had formed a confluent layer, […] of serial dilutions of the test compound were added to the cells. After 18 hours of incubation metabolic activity of the cells was determined using an MTT assay (Mosman et al., 1983)."}, "[1]": {"settings": "5 nM enzyme, read-out: IC50, carolacton inhibition on CYH activity"}, "[2]": {"settings": "vs 5,10-CH=THF, read-out: Ki (5,10-CH═THF), carolacton inhibition on CYH activity"}}, "data": [{"smiles": "CO[C@H](CC(=O)O)[C@@H](C)C(=O)[C@H](C)/C=C(\\C)[C@H]1OC(=O)[C@H](O)[C@H](O)/C=C/[C@H](C)CCC[C@@H]1C", "note": "[Carolacton, carolacton]", "values": [{"measurement": "IC50", "setting": "hsMTHFD2; [1]", "result": 85.7, "unit": "nM"}, {"measurement": "Ki", "setting": "hsMTHFD2; [2]", "result": 12.7, "unit": "nM"}, {"measurement": "IC50", "setting": "hsMTHFD1 DC301; [1]", "result": 19.4, "unit": "nM"}, {"measurement": "Ki", "setting": "hsMTHFD1 DC301; [2]", "result": 20.6, "unit": "nM"}, {"measurement": "acute toxicity", "setting": "L-929 mouse fibroblasts", "result": "no acute toxicity"}]}]}
